Measured values: ChEMBL document CHEMBL5223137, “Mapping Ligand Interactions of Bromodomains BRD4 and ATAD2 with FragLites and PepLites─Halogenated Probes of Druglike and Peptide-like Molecular Interactions” (J Med Chem, 2022)

These compounds were tested against T1, ATPase family AAA domain-containing protein 2 (Homo sapiens, UniProt Q6PL18) (assay: Inhibition of His-6 tagged recombinant human ATAD2 (981 to 1108 residues) expressed in Escherichia coli BL21 (DE3) rosetta cells by HTRF assay).
T1 sequence (Q6PL18 whole entry): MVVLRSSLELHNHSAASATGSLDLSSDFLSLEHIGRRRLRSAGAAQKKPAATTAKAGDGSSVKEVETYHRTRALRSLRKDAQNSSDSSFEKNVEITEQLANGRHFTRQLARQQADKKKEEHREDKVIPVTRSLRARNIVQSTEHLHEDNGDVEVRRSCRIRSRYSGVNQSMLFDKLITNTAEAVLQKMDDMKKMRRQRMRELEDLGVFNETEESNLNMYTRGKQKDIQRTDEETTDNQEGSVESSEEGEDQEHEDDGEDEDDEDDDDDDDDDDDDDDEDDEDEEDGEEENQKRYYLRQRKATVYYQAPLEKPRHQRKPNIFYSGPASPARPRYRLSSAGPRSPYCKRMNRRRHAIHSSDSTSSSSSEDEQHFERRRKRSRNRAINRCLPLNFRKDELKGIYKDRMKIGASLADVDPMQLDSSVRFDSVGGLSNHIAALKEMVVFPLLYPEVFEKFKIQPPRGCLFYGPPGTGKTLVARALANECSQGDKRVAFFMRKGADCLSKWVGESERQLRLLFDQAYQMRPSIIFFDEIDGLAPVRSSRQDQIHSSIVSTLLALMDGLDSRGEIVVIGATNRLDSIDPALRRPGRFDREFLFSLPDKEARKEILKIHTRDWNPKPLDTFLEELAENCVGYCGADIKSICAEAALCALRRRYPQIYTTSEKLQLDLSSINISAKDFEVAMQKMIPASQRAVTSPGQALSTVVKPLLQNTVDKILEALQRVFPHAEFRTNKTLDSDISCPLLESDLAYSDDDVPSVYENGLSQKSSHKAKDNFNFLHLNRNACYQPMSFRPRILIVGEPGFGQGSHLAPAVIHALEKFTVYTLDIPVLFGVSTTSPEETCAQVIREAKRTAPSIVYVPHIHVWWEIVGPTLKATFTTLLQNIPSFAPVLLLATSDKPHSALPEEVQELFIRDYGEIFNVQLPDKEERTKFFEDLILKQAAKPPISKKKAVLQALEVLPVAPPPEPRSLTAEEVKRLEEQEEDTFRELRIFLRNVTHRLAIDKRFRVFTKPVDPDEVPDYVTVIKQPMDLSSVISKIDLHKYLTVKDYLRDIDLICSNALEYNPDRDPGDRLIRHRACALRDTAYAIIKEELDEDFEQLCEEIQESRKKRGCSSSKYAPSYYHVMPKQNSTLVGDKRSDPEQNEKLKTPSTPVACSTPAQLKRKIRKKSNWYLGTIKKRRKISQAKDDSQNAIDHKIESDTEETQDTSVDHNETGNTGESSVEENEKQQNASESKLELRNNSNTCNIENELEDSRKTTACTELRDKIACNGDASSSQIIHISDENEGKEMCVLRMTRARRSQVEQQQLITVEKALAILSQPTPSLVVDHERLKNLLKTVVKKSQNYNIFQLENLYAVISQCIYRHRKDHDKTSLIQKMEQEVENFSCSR
Compound Cn1cccc(NCC2CCNCC2)c1=O has an IC50 of 543 µM. CN1CCNc2c1ccn(C)c2=O was tested, and the IC50 was 822 µM. Work on Cn1cc(Br)cc(N)c1=O yielded an IC50 of 377 µM. Cn1ccc(NCc2ccccn2)c(N)c1=O was tested, and the IC50 was 55 µM.
